In assay [1] the test system is hMT2. Nature of the assay: 2-[125I]-iodomelatonin competition binding, CHO cell membranes. The following applies: in 2-[125I]-iodomelatonin binding assays.
Protocol: (§1) For receptor binding studies, '7447 was dissolved in 50% DMSO/50% ethanol for 13 mM stock solution, diluted 1/10 in 100% ethanol then 1/10 again in 50% ethanol/50% Tris-HCl buffer. Both '3384 and '4226 were dissolved in 100% ethanol for 13 mM stock solutions and then diluted 1/10 in 50% ethanol/50% Tris-HCl buffer. Further dilutions were done in Tris-HCl buffer.
(§2) Assays were incubated for 1 hour at 25° C. Bound radioligand was separated from freeby rapidvacuum filtration using glass microfiber filters (Whatman, Krackeler Scientific, Inc., Albany N.Y., USA) saturated in 0.5% polyethylenimine solution.
(§3) Affinity shifts or lack thereof with G protein inactivation indicate apparent efficacy (Lefkowitz, R. J. et al., J Biol Chem 251, 4686-4692, 1976) as ligands are classified as agonists (ΔpKi% MLT>20%), antagonists (ΔpKi% MLT<20%, >−20%), or inverse agonists (ΔpKi% MLT<−20%) accordingly.
In assay [2] the target is T1, hMT1 (Homo sapiens, UniProt P48039). Nature of the assay: cAMP assay (GloSensor), isoproterenol-stimulated cAMP in HEK cells. The assay is classed as cell-based. The arrangement: expressed in transfected cells; host or cells: HEK-T (HEK-293 T) cells, co-transfected with GloSensor DNA. The following applies: for hMT1 pEC50: FIG. 3D-3F, transiently expressed receptor, isoproterenol-stimulated cAMP production; for inverse agonist efficacy: at MT1; for selectivity for MT1 over MT2: cAMP, inverse agonists. On the procedure:
HEK-293 T cells were maintained with complete Dulbecco's modified Eagle's medium (DMEM), which is composed of 10% fetal bovine serum (FBS), 2 mM L-glutamine, 100 units/ml penicillin G, 100 μg/ml streptomycin at 37° C. in the presence of 5% CO2
MT1 and MT2 receptors were tested using Promega's spilt luciferase based GboSensor cAMP biosensor technology. HEK-T cells were plated in 15 cm cell culture dish (at a density of 18 million cells) containing DMEM composed of 10% dialyzed FBS, 2 mM L-glutamine, 100 units/ml penicillin G, 100 μg/ml streptomycin for 4-6 hour. Then, cells were co-transfected with 8 μg of construct which encodes either MT1 or MT2 (de-Tangonized constructs) and […] of Glosensor DNA. Next day, transfected cells were seeded into poly-L-lysinecoated 384-well white clear bottom cell culture plates with complete DMEM with 1% dialized FBS at a density of 20,000 cells per well for another 24 h. The next day, cell medium were discarded and loaded with 20 μl of assay buffer (1×HBSS, 20 mM HEPES, pH 7.4, 0.1% BSA). To measure agonist activity of MT1 or MT2 receptor, 10 μl of test compound solution at 3× final concentration was added for 15 minutes followed by addition of 10 μl of luciferin/isoproterenol mixture (at a final concentration of 4 mM and 200 nM respectively) for another 15 mins for luminescence quantification. Then, plates were counted using SpectraMax luminescence reader (Molecular Device). Data were analyzed using GraphPad Prism 6.0.

Assay [3] deals with C3H/HeN mice. Nature of the assay: Re-entrainment of running wheel activity after 6 h advance of dark onset (jet-lag model). Format: in vivo. The settings on record: 30 μg/mouse s.c., in words; for rate of re-entrainment to the new light-dark cycle: 3 days, WT. The text has this:
Male and female C3H/HeN (C3H) wild-type (WT), MT1 knockout (MT1KO), and MT2 knockout (MT2KO) mice (average 6.28 months) used in this study were raised in our breeding colony at University at Buffalo. […] Genotype was confirmed using tail samples at the end of each experiment and was verified periodically during the tenure of the colony. The strains of mice in our breeding colony were re-derived periodically by backcrossing with WT mice to reduce genetic drift.
Mice were group housed (3-5 per cage) with corncob bedding in polycarbonate translucent cages (30×19 cm) and maintained in a 14/10 light-dark (LD) cycle (Zeitgeber time 0 or ZT0 corresponds to Lights ON and ZT 14 to Lights OFF) in temperature and humidity controlled rooms with ad libitum access to food and water in the Laboratory Animal Facility at the University at Buffalo. Light levels were 200-300 lux at the level of the cage. Treatments and animal care performed in the dark were under a dim red safelight (15 watts, Kodak 1A filter) with illuminance of less than 3-5 lux (Benloucif, S. & Dubocovich, M. L. J Biol Rhythms 11, 113-125, (1996). All experimental procedures using mice were conducted in accordance with guidelines set forth by the National Institutes of Health and approved by the University at Buffalo Institutional Animal Care and Use Committee.
Circadian rhythm phase was determined for each mouse using the onset of running wheel activity defined as CT12 (Circadian Time 12). Running wheel activity was measured continuously via magnetic microswitches detecting wheel revolutions with a computer equipped with Clocklab data collection Software™ (Actimetrics: Wilmette, Ill.). All actigraphy data was visualized and analyzed using ClockLab™ and MATLAB™ software. All mice were individually housed in cages (33×15 cm) equipped with running wheels in light-tight ventilated cabinets with controlled temperature and LD cycles (Phenome Technologies: Skokie, Ill.). Male and female mice were housed in separate cabinets for all experiments.
Male and female C3H WT, MT1KO, and MT2KO mice (3 to 6 months) were maintained under a 12:12 LD cycle for at least 2 weeks prior experimental manipulations to allow stable entrainment to dark onset before advance of the LD cycle. Actigraphy data was recorded as described above and all experiment protocols performed as described (Dubocovich, M. L. et al., J Pineal Res 39, 113-120, 2005). On the first day of treatment, the dark onset was advanced 6 h. […] Post treatment, mice were given 14-20 days to re-entrain running wheel activity onsets to the new dark onset. Using exported running wheel activity onsets from actograms, onset hours advanced each day were determined by subtracting this value each day from the average onset of running wheel activity for 3 days prior to treatment for each mouse. Further, using the data from this calculation combined with visualization of actograms, the number of days to reach stable re-entrainment was determined for each mouse.
All statistical analyses as described in further detail for each experiment were conducted using GraphPad Prism 8™ (La Jolla, Calif.). All data sets were visualized for normality using QQ plots of predicted vs. actual residuals. Actigraphy data was generated for visualization blind to treatment prior to the quantification and statistical analysis stages. […] Data in FIGS. 4F & 4G were compared via a two-way ANOVA (3×2: genotype x treatment) with Tukey's post hoc analyses (P<0.05). […]

Assay [4] concerns 318 other GPCRs. Nature of the assay: PRESTO-Tango GPCR-ome counter-screen, agonist mode. Format: cell-based. The settings on record: arrestin recruitment Tango, in words. On the procedure: Screening of compounds in the PRESTO-Tango GPCR-ome was accomplished as previously described (Kroeze, supra). with several modifications. First, HTLA cells were plated in DMEM with 10% FBS and 10 U/mL penicillin-streptomycin. Next, the cells were transfected using an in-plate PEI method (Longo, P. A. et al., Methods Enzymol 529, 227-240, 2013). PRESTO-Tango receptor DNAs were resuspended in OptiMEM and hybridized with PEI prior to dilution and distribution to 384-well plates and subsequent addition to cells. After overnight incubation, drugs were added to cells without replacement of the medium. The remaining steps of the PRESTO-Tango protocol were followed as previously described.
(In general: Counterscreens check selectivity or assay interference.)

Assay [5] deals with T1, hMT1. Nature of the assay: 2-[125I]-iodomelatonin competition binding, CHO cell membranes. The settings on record: read-out: Ki at MT1.
Protocol: as §1, §2, §3
Where [6] appears, read: Schild analysis, competitive antagonism of melatonin.
[7] abbreviates: inverse agonist, increase of basal cAMP, read-out: EC50 at MT1.

Consider three compounds from patent US20230052740A1, “MODULATORS OF CIRCADIAN RHYTHMS AND USES THEREOF” (The Regents of the University of California, priority 2019, published 2023).

Where two headings read alike, the source gives them in different places.

T1 sequence (P48039 whole entry): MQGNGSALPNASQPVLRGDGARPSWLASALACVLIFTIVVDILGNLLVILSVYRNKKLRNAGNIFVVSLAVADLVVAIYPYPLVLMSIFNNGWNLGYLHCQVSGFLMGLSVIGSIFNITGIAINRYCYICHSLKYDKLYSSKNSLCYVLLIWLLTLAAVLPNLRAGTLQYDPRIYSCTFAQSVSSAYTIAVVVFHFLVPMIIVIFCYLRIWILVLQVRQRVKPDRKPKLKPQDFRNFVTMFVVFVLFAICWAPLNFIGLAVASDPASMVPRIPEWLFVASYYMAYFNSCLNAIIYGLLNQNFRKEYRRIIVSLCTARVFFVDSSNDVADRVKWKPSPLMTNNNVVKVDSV

In the case of `COc1ccc(Br)c(CNc2cccnc2)c1` [ZINC128734226], the MT2/MT1 selectivity in assay [1] is 54. Moreover, in assay [2], the “hMT1 pEC50” value stood at 6.83±0.17. Besides, the Emax (in general, the greatest response seen or fitted, relative to the assay's reference) is 79 ± 3% in assay [2] (HEK293, FIG. 3F, normalized to maximal melatonin effect, read-out: hMT1 Emax); 79% in assay [2] (HEK293, Table 2, agonist, normalized to melatonin response, read-out: MT1 % Emax (converted)); 48% in assay [2] (HEK293, Table 4, agonist, read-out: Emax % MT1). In assay [2] (Table 4, agonist), the “pIC50 MT1” value amounted to 6.8.

For the compound `Clc1ccc(CNc2cccc(-c3nnc[nH]3)c2)c(Br)c1` [ZINC555417447], the “rate of re-entrainment to the new light-dark cycle” value in assay [3] is “decelerated re-entrainment”. In addition, the “effect on re-entrainment in MT1KO mouse” value in assay [3] (MT1KO) was “eliminated”. Besides, the “effect on re-entrainment in MT2KO mice” value in assay [3] (MT2KO) is “greater deceleration”. In assay [4], the off-target agonist activity result was “Neither of the two inverse agonists had significant activity against any of the 318 receptors”. In addition, the Ki (in general, a measure of affinity in units of concentration, obtained from inhibition or displacement) was 304 nM in assay [5] (in the absence of GTP) and 7.5 nM in assay [5] (with GTP (100 μM)). The “hMT1 pEC50” value in assay [2] is given as 7.39±0.10. For the same compound, the Emax in assay [2] (HEK293, FIG. 3D-3E, normalized to isoproterenol-stimulated basal activity, read-out: hMT1 Emax) was -62 ± 13%; in assay [2] (HEK293, Table 2, cell marked Inverse (inverse agonist), read-out: MT1 % Emax (converted)) it was 62%. The “hMT1 Schild slope” value in assay [2] (setting [6]) worked out at 0.98±0.03. Moreover, the “hMT1 pKB” value in assay [2] (setting [6]) is 7.4±0.1. The EC50 in assay [2] (Table 4, IA (inverse agonist), read-out: pEC50 MT1 (IA) (converted)) is 50.1 nM; in assay [2] (setting [7]) it was 41 nM. The compound also displayed an inverse agonist efficacy in assay [2] of 62%. Besides, the “selectivity for MT1 over MT2” value in assay [2] worked out at 50 fold.

On to `CC(C)c1ccc(CNc2cccc(-c3ncn[nH]3)c2)cc1` [ZINC157673384], for which, in assay [3], the “rate of re-entrainment to the new light-dark cycle” value is on record as “decelerated re-entrainment”. The off-target agonist activity entry in assay [4] is “Neither of the two inverse agonists had significant activity against any of the 318 receptors”. Besides, the Ki in assay [5] (in the absence of GTP) was 938 nM. In addition, the Ki in assay [5] (with GTP (100 μM)) stood at 63 nM. In addition, the “hMT1 Emax” value in assay [2] (FIG. 3D-3E, normalized to isoproterenol-stimulated basal activity) is given as −47±12%. In assay [2], the “hMT1 pEC50” value is on record as 7.68±0.09, the inverse agonist efficacy amounted to 47% and the “selectivity for MT1 over MT2” value is 30 fold. Besides, in assay [2] (setting [6]), the “hMT1 Schild slope” value was 0.80±0.04 and the “hMT1 pA2” value stood at 7.9±0.1. The “MT1 % Emax” value in assay [2] (Table 2, cell marked Inverse (inverse agonist)) amounted to 47 ± 12%. Moreover, the “pEC50 MT1 (IA)” value in assay [2] (Table 4, IA (inverse agonist)) is 7.7. In assay [2] (setting [7]), the EC50 came to 21 nM.
